Assay [1] relates to St. Aureus Russell. The assay is described as follows: standard MIC test, antibacterial activity of compound alone. Type of assay: cell-based, Staphylococcus aureus. Conditions: for MIC: Staphylococcus aureus. From the text: (§1) In a standard MIC test the following antibacterial activities were obtained.
In another assay the test system is E.coli JT39. The description is as above. Type of assay: cell-based, Escherichia coli. The conditions noted are these: for MIC: Escherichia coli.
Text: as §1

Assay [2] deals with K. aerogenes E70. The assay is described as above. The format is cell-based, Klebsiella aerogenes. The conditions noted are these: for MIC: Klebsiella aerogenes.
Text: as §1

Assay [3] relates to K. aerogenes E70. Description: standard MIC test, synergy of tetrazolyl derivatives with amoxycillin. The format is cell-based, Klebsiella aerogenes.
Assay [4] concerns St. Aureus Russell. Described as above. Type of assay: cell-based, Staphylococcus aureus.
A further assay relates to E. coli JT39. The description is as above. Type of assay: cell-based, Escherichia coli. The source says:
In a standard MIC test the following data were obtained for the synergistic activity of tetrazolyl derivatives with amoxycillin.

[5] abbreviates: amoxycillin plus compound at 1.0 μg/ml.
Where [6] appears, read: amoxycillin plus compound at 5.0 μg/ml.

Values after ≈ are worked out from the molar mass of the structure shown.

One may read the MIC as the lowest concentration found to suppress growth. Lower therefore signals a more susceptible organism.

`CCOC(=O)c1nnnn1CC=C1OC2CC(=O)N2C1C(=O)O` (centres unmarked) [Example 14, Lithium 9-(5-ethoxycarbonyltetrazol-1-yl)deoxyclavulanate]: the MIC amounted to 8 µg/mL (≈ 24.7 µM) with St. Aureus Russell [1], 8 µg/mL (≈ 24.7 µM) with E.coli JT39 and 31.2 µg/mL (≈ 96.5 µM) with K. aerogenes E70 [2].

Regarding `O=C(O)C1C(=CCn2nnnc2-c2ccccc2)OC2CC(=O)N21` (centres unmarked) [Example 27, Potassium 9-(5'-phenyltetrazol-1'-yl)-9-deoxyclavulanate], the results for the MIC with St. Aureus Russell [1], against E.coli JT39 and against K. aerogenes E70 [2] were 4 µg/mL, 125 µg/mL and above 500 µg/mL, respectively.

In the case of `CC1(C)S[C@@H]2[C@H](NC(=O)[C@H](N)c3ccc(O)cc3)C(=O)N2[C@H]1C(=O)O` [amoxycillin, reference compound], the values for the MIC amoxycillin with K. aerogenes E70 [3] (amoxycillin alone), with St. Aureus Russell [4] (amoxycillin alone) and with E. coli JT39 (amoxycillin alone) were 1000 µg/mL, 500 µg/mL and 2000 µg/mL, respectively.

Consider `Nc1nnnn1CC=C1OC2CC(=O)N2C1C(=O)[O-].[Li+]` (centres unmarked) [Example 10, Lithium 9-(5-aminotetrazolyl)deoxyclavulanate], for which the MIC amoxycillin in the assay with K. aerogenes E70 [3] (setting [5]) stood at 3.1 µg/mL; in the assay on K. aerogenes E70 [3] (setting [6]), 0.4 µg/mL; with St. Aureus Russell [4] (setting [5]), 0.3 µg/mL; in the assay with St. Aureus Russell [4] (setting [6]), 0.04 µg/mL; in the assay on E. coli JT39 (setting [5]), 4.0 µg/mL. Also, the MIC (antibacterial activity) against St. Aureus Russell [1] was found to be 8 µg/mL; against E.coli JT39, 8 µg/mL; in the assay with K. aerogenes E70 [2], 31.2 µg/mL.

On to `O=C(O)C1C(=CCn2ncnn2)OC2CC(=O)N21` (centres unmarked) [Example 7, Lithium 9-tetrazol-2-yldoexyclavulanate], for which the MIC in the assay with St. Aureus Russell [1], against E.coli JT39 and against K. aerogenes E70 [2] was 16 µg/mL (≈ 63.7 µM) throughout.

For the compound “Sodium 9-(5-acetamidotetrazolyl)deoxyclavulanate [Example 12]”, the MIC amoxycillin with K. aerogenes E70 [3] (setting [5]) is 3.1 µg/mL; with K. aerogenes E70 [3] (setting [6]), 1.5 µg/mL; with St. Aureus Russell [4] (setting [5]) it was 0.3 µg/mL; in the assay with St. Aureus Russell [4] (setting [6]) it was 0.08 µg/mL; in the assay with E. coli JT39 (setting [5]) it was 4.0 µg/mL; in the assay on E. coli JT39 (setting [6]) it was at most 0.5 µg/mL. Besides, the values for the MIC (antibacterial activity) in the assay on St. Aureus Russell [1], against E.coli JT39 and against K. aerogenes E70 [2] were 16 µg/mL, 16 µg/mL and 31.2 µg/mL, respectively.

Regarding `O=C(O)C1C(=CCn2cnnn2)OC2CC(=O)N21` (centres unmarked) [Example 18, Lithium 9-(tetrazol-1-yl)deoxyclavulanate], the MIC against St. Aureus Russell [1] was 16 µg/mL (≈ 63.7 µM); against E.coli JT39, 16 µg/mL (≈ 63.7 µM); against K. aerogenes E70 [2], 62.5 µg/mL (≈ 249 µM).

For the compound `O=C(O)c1nnnn1CC=C1OC2CC(=O)N2C1C(=O)O` (centres unmarked) [Example 15, Disodium 9-(5-carboxylatotetrazol-1-yl)deoxyclavulanate], the MIC stood at 16 µg/mL against St. Aureus Russell [1], 16 µg/mL against E.coli JT39 and 31.2 µg/mL with K. aerogenes E70 [2].

Take `Cc1nnnn1CC=C1OC2CC(=O)N2C1C(=O)O` (centres unmarked) [Example 25, Potassium 9-(5'-methyltetrazol-1'-yl)-9-deoxyclavulanate]: the MIC against St. Aureus Russell [1] stood at 16 µg/mL; in the assay on E.coli JT39, 8 µg/mL; in the assay with K. aerogenes E70 [2] it was 62.5 µg/mL.

Take `O=CNc1nnnn1CC=C1OC2CC(=O)N2C1C(=O)[O-].[Li+]` (centres unmarked) [Example 35, Lithium 9-(5-formamidotetrazolyl)deoxyclavulanate]: the MIC amoxycillin in the assay on K. aerogenes E70 [3] (setting [5]) was found to be 6.2 µg/mL; in the assay on K. aerogenes E70 [3] (setting [6]) it was 1.6 µg/mL; in the assay with St. Aureus Russell [4] (setting [5]), 0.6 µg/mL; in the assay on St. Aureus Russell [4] (setting [6]), 0.16 µg/mL; in the assay on E. coli JT39 (setting [5]), 8.0 µg/mL; with E. coli JT39 (setting [6]) it was 4.0 µg/mL. Also, the results for the MIC (antibacterial activity) in the assay with St. Aureus Russell [1], against E.coli JT39 and with K. aerogenes E70 [2] were 16 µg/mL, 31.2 µg/mL and 62.5 µg/mL, respectively.

Values taken from US4584291A, “9-deoxy-9-tetrazolyl-derivatives of clavulanic acid, their preparation and their use” (Beecham Group p.l.c., priority 1980, dated 1986).
